Data on ten compounds can be found in paper PMC12475274, “Harnessing indole scaffolds to identify small-molecule IRE1α inhibitors modulating XBP1 mRNA splicing” (Nature Communications, 2025).

Several values for one entry are separate records, joined by “and”; a condition that tells them apart may be missing. Identical values can stand only once. Like-named read-outs stand apart in the source and are kept apart here.

In one test the target is T1, IRE1α (Homo sapiens, UniProt O75460).
T1 construct: Human IRE1α kinase and RNase domain (residues 547–977) was subcloned into pLIB plasmid; His tag (with TEV cleavage site) (N, cleaved yes); made in house; host or cells: Sf9 insect cells, baculovirus (Bac-to-Bac)
T1 sequence (O75460 547-977): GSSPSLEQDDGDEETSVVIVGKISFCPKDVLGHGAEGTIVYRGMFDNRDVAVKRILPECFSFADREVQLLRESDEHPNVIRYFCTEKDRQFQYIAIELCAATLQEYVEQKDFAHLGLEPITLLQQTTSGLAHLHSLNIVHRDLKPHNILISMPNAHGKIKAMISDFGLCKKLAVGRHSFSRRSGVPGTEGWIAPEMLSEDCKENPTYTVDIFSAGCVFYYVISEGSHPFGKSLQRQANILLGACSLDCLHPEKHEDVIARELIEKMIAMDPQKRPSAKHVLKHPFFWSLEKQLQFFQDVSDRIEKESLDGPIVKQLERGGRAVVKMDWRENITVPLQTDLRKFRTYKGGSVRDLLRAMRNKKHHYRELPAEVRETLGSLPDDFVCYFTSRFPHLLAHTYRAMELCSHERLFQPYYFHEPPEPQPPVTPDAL
As to the kind of experiment: Differential scanning fluorimetry (DSF), IRE1α. It is filed as binding. To be noted: for IRE1 ∆Tm(°C): Supplementary Fig. 3c, replicate values. The protocol: (§1) The DSF assay was performed in PBS buffer containing 2 mM DTT, in a total reaction volume of 20 µl with indicated compounds (final 1% DMSO) and the final concentration of 1 µM IRE1α protein and 5× SYPRO Orange fluorescent dye (5000× in DMSO, Sigma S5692). The melting curve was measured at a temperature range from 25 °C to 95 °C and in increments of 1 °C for 30 s using a Bio-Rad CFX96 Real-Time PCR detection system with the FRET scan mode. The melting temperature (Tm) was obtained by fitting the melting curve to Boltzmann sigmoidal in GraphPad Prism and the thermal shift (∆Tm) was calculated by using the equation: ∆Tm = Tm(compound) -Tm(DMSO).
In general terms: In DSF a fluorescence change marks the thermal transition of the protein.

Test [1] concerns the target T2, dephosphorylated IRE1α (547–977) (Homo sapiens, UniProt O75460).
T2 construct: Human IRE1α kinase and RNase domain (residues 547–977) was subcloned into pLIB plasmid; His tag (with TEV cleavage site) (N, cleaved yes); made in house; host or cells: Sf9 insect cells, baculovirus (Bac-to-Bac)
As to the kind of experiment: FRET-based IRE1α RNase activity assay, dephosphorylated IRE1α. It counts as biochemical. The gist of the method:
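Inhibition came from the linear-phase cleavage rate of 100 nM XBP1-sequence FAM/BHQ1 RNA, monitored at 485/535 nm over one hour and fitted to IC50. Enzyme: 40 nM unphosphorylated IRE1α kinase-RNase domain (547–977), exposed to compound for 30 min at room temperature before substrate, in HEPES pH 7.5 buffer.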

The target of another test is IRE1α (ERN1) (Homo sapiens, UniProt O75460). As to the kind of experiment: LanthaScreen Eu kinase binding assay, IRE1α. The procedure:
LanthaScreen^TM Eu kinase binding assays were conducted by SelectScreen Kinase Profiling Services (Thermo Fisher) using Alexa Fluor conjugated kinase tracer, tagged kinase protein, and Eu-labeled anti-tag antibody. The binding of the tracer to the kinase will form the tracer-kinase complex, resulting in a high FRET signal with the Eu-labeled anti-tag antibody. Displacement of the tracer by a kinase inhibitor led to a decreased FRET signal. […] Buffer A containing 50 mM HEPES pH 7.5, 0.01% BRIJ-35, 10 mM MgCl2, and 1 mM EGTA was used.
Kinase profiling was conducted by the SelectScreen Kinase Profiling Services (Thermo Fisher), using Z′-LYTE, Adapta, or LanthaScreen Eu Kinase Binding Assay for different kinases. The kinome phylogenetic tree was generated using the KinMap web portal.
(In TR-FRET formats the signal depends on donor and acceptor labels being close together.)

The target in test [2] is T3, phosphorylated IRE1α (p-IRE1α) (Homo sapiens, UniProt O75460).
T3 construct: Human IRE1α kinase and RNase domain (residues 547–977) was subcloned into pLIB plasmid; His tag (with TEV cleavage site) (N, cleaved yes); made in house; host or cells: Sf9 insect cells, baculovirus (Bac-to-Bac)
T3 sequence (O75460 547-977): as above
Briefly: FRET-based IRE1α RNase activity assay, phosphorylated IRE1α. It counts as biochemical. The method in brief:
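Cleavage of a dual-labeled XBP1 RNA (200 nM) was followed kinetically over 1 h at room temperature at 485/535 nm, with initial slopes giving percent inhibition and IC50. Enzyme was 4 nM phosphorylated human IRE1α 547–977 from insect cells, incubated with compound for 30 min before substrate; buffer 20 mM HEPES pH 7.5, KOAc, MgOAc2, DTT, Triton X-100.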

In the next test the target is T4, p-IRE1α (Homo sapiens, UniProt O75460).
T4 construct: Human IRE1α kinase and RNase domain (residues 547–977) was subcloned into pLIB plasmid; His tag (with TEV cleavage site) (N, cleaved yes); made in house; host or cells: Sf9 insect cells, baculovirus (Bac-to-Bac)
T4 sequence (O75460 547-977): as above
Briefly: Differential scanning fluorimetry (DSF), p-IRE1α. It is filed as binding. To be noted: individual replicate values. The procedure:
as §1

Where [3] appears, read: Conc. 50000 nM, duplicates, read-out: IRE1a Kinase Displacement(%).
Where [4] appears, read: FRET assay, source data, unit from Fig. 3 / sheet Fig. 2b, read-out: IRE1a IC50, individual replicates (n1-n4).
[5] abbreviates: FRET assay, source data, unit from Fig. 3, read-out: p-IRE1a IC50, individual replicates (n1-n4).
The mark [6] stands for this setting: FRET assay, RNase activity, mean (± SEM), read-out: IRE1α IC50.
Setting [7] is: FRET assay, RNase activity, mean (± SEM), read-out: p-IRE1α IC50.
The mark [8] stands for this setting: p-IRE1a, individual replicates (n1-n3), Supplementary Fig. 2b, 2c, read-out: IC50.
Setting [9] is: FRET assay, RNase activity, mean (± SEM).

Chain of IRE1α (ERN1) (O75460 19-977): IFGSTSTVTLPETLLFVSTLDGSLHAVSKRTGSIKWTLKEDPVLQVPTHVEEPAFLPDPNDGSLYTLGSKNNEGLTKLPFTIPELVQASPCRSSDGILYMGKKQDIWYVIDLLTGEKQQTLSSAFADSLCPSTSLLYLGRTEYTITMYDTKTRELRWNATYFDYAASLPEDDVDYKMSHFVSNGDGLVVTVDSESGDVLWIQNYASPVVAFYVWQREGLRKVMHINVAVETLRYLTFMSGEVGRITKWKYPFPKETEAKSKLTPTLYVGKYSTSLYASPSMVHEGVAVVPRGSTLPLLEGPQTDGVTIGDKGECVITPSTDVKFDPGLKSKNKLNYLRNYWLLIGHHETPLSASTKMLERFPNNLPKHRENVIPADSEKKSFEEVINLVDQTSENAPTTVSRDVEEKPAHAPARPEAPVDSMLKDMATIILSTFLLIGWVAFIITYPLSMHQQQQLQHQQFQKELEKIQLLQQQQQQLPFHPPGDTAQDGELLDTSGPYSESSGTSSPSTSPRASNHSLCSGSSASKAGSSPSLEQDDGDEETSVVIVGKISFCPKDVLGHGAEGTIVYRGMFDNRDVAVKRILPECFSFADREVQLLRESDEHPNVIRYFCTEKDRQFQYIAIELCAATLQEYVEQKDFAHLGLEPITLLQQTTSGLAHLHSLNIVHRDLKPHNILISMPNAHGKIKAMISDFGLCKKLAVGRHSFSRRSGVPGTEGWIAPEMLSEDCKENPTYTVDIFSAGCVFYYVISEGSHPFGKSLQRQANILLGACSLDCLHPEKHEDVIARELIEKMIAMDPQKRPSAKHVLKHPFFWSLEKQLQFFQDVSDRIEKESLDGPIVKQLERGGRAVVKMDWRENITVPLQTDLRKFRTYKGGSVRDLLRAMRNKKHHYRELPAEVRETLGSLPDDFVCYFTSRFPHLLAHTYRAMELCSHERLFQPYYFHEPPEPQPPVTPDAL
T2 sequence (O75460 547-977): as the sequence (O75460 547-977) above

Turning to `COc1ccc2c(c1)c(CCC(=O)O)c(C)n2C(=O)c1ccc2ccccc2c1` [IA034], the “IRE1 ∆Tm(°C)” value at IRE1α (compound 6.25 μM) was 0.1 °C and -0.04 °C; at IRE1α (compound 12.5 μM), 0.02 °C and -0.1 °C; at IRE1α (compound 25 μM) it was 0.25 °C and 0 °C; on IRE1α (compound 50 μM), -0.02 °C and 0 °C.
Regarding `COc1ccc2c(c1)c(CCC(=O)O)c(C)n2C(=O)c1ccc(S(=O)(=O)F)cc1` [IA06], the IC50 – broadly, the point on the concentration scale where inhibition reaches its midpoint – was 9650 nM and 7760 nM and 4550 nM in test [1] (IRE1a IC50, individual replicates (n1-n4), FRET assay, source data, unit from Fig. 3 / sheet Fig. 2b); 7320 nM in test [1] (IRE1α IC50, FRET assay, RNase activity, mean (± SEM)); 11100 nM and 6780 nM and 5450 nM in test [2] (p-IRE1a IC50, individual replicates (n1-n4), FRET assay, source data, unit from Fig. 3); 7790 nM in test [2] (p-IRE1α IC50, FRET assay, RNase activity, mean (± SEM)). Moreover, the inhibition at 50 µM turned out to be 23% at IRE1α (ERN1) (50 μM, read-out: kinase inhibition at highest tested concentration) and 17% on IRE1α (ERN1) (setting [3]).
Consider `COc1ccc2c(c1)c(CCC(=O)O)c(C)n2C(=O)c1cc2ccccc2s1` [IA10], for which the IC50 is 1810 nM in test [1] (FRET assay, dephosphorylated IRE1α, read-out: IRE1α IC50 (RNase activity)); 727 nM and 2780 nM and 2470 nM and 1250 nM in test [1] (setting [4]); 9610 nM on IRE1α (ERN1) (IRE1α kinase domain, read-out: IC50 (kinase binding), LanthaScreen Eu kinase binding); 1970 nM in test [2] (FRET assay, read-out: p-IRE1α IC50 (RNase activity)); 3010 nM and 1920 nM and 985 nM in test [2] (setting [5]). Besides, at IRE1α (ERN1) (Conc. 5560 nM, duplicates, read-out: IRE1a Kinase Displacement(%)), the inhibition at 5.56 µM was 35%. Further, the inhibition at 16.7 µM on IRE1α (ERN1) (Conc. 16700 nM, duplicates, read-out: IRE1a Kinase Displacement(%)) turned out to be 63%. On IRE1α (ERN1) (setting [3]), the inhibition at 50 µM was 58%.
Consider `COc1ccc2c(c1)c(CCC(=O)O)c(C)n2C(=O)c1cccc(C#N)c1` [IA30], for which the IC50 was 90 nM and 85 nM in test [1] (setting [6]); 63.5 nM and 100 nM and 91.3 nM in test [1] (setting [4]); 40 nM in test [2] (setting [7]); 57 nM and 41 nM and 21 nM in test [2] (setting [5]); 56.8 nM and 41.3 nM and 21.4 nM in test [2] (setting [8]). Besides, the “stabilization of IRE1α in DSF” value at IRE1α is “concentration-dependently stabilized”. In addition, the “IRE1 ∆Tm(°C)” value was 0.71 °C and 0.59 °C at IRE1α (compound 6.25 μM); 1.19 °C and 1.23 °C on IRE1α (compound 12.5 μM); 1.84 °C and 1.88 °C on IRE1α (compound 25 μM); 2.92 °C and 2.84 °C at IRE1α (compound 50 μM). The “p-IRE1a ∆Tm(°C)” value at p-IRE1α (compound 6.25 μM) is 0.49 °C and 0.43 °C; on p-IRE1α (compound 12.5 μM) it was 0.57 °C and 0.74 °C; on p-IRE1α (compound 25 μM), 1.03 °C and 1.24 °C; on p-IRE1α (compound 50 μM), 1.59 °C and 1.56 °C.
As to `COc1ccc2c(c1)c(CCC(=O)O)c(C)n2C(=O)c1cccs1` [IA03], the IC50 in test [1] (setting [6]) is 100 nM; in test [1] (setting [4]) it was 73.3 nM and 110 nM and 118 nM; in test [2] (setting [7]), 120 nM; in test [2] (setting [5]), 176 nM and 68 nM and 105 nM; in test [2] (setting [8]), 176 nM and 68 nM and 105 nM. Further, the “stabilization of IRE1α in DSF” value on IRE1α was “concentration-dependently stabilized”. In addition, the “IRE1 ∆Tm(°C)” value on IRE1α (compound 6.25 μM) is 0.75 °C and 0.95 °C; at IRE1α (compound 12.5 μM), 1 °C and 0.99 °C; at IRE1α (compound 25 μM) it was 1.96 °C and 1.82 °C; at IRE1α (compound 50 μM), 2.84 °C and 2.57 °C. Moreover, the “p-IRE1a ∆Tm(°C)” value on p-IRE1α (compound 6.25 μM) was 0.24 °C and 0.45 °C; at p-IRE1α (compound 12.5 μM), 0.39 °C and 0.62 °C; on p-IRE1α (compound 25 μM), 1.04 °C and 1.05 °C; at p-IRE1α (compound 50 μM), 1.49 °C and 1.54 °C.
As for `COc1ccc2c(c1)c(CC(=O)O)c(C)n2C(=O)c1ccc(N(C)C)cc1` [idm06], the “Inhibiton% @ 50 Μm” value in test [1] (IRE1a, @ 50 Μm, individual replicates (n1-n3), Supplementary Fig. 2a) was 31.43% and 32.06% and 32.96% and 41.19% and 38.68%; in test [2] (p-IRE1a, @ 50 Μm, individual replicates (n1-n3), Supplementary Fig. 2a), 36.04% and 36.79% and 33.53% and 36.40% and 23.29% and 29.46%. Further, the “Inhibiton% @ 50 Μm, mean” value came to 35.27% in test [1] (IRE1a, @ 50 Μm, mean, Supplementary Fig. 2a) and 32.58% in test [2] (p-IRE1a, @ 50 Μm, mean, Supplementary Fig. 2a).
Turning to `COc1ccc2c(c1)c(CCC(=O)O)c(C)n2C(=O)C12CCC(C)(C(=O)O1)C2(C)C` (stereo not shown) [IA92], in test [1] (setting [9]), the “IRE1α IC50” value was “IC₅₀ not reached”. For the same compound, the IC50 in test [1] (setting [6]) and in test [2] (setting [7]) was greater than 20000 nM each time. For the same compound, the “p-IRE1α IC50” value in test [2] (setting [9]) is reported as “IC₅₀ not reached”.
With `COc1ccc2c(c1)c(CCC(=O)O)c(C)n2C(=O)N1CCCCC1` [IA89], the IC50 in test [1] (setting [6]) is 69600 nM; in test [1] (setting [4]), 33400 nM and 89300 nM and 86000 nM; in test [2] (setting [7]), greater than 20000 nM. In test [2] (setting [9]), the “p-IRE1α IC50” value was “IC₅₀ not reached”.
In the case of `CC(=O)c1ccc(-c2ccc3c(c2)c(CCC(=O)O)c(C)n3C(=O)c2ccccc2)s1` [IA162], the IC50 in test [1] (setting [6]) is 4730 nM; in test [1] (setting [4]), 3280 nM and 6180 nM; in test [2] (setting [7]) it was 15100 nM; in test [2] (setting [5]), 15800 nM and 14400 nM.
Take `COc1ccc2c(c1)c(CC(=O)N1CCOCC1)c(C)n2C(=O)c1ccc(Cl)cc1` [cms11]: the inhibition at 50 µM in test [1] (FRET assay at 50 μM, mean (± SEM), read-out: IRE1α inhibition%) was less than 30%; in test [2] (FRET assay at 50 μM, mean (± SEM), read-out: p-IRE1α inhibition%), less than 30%.
